Measurements as given in US20240350430A1, “GROWTH INHIBITOR OF METASTATIC HUMAN PROSTATE CANCER CELLS” (Watanabe Oyster Laboratory Co., Ltd., priority 2021, published 2024).

Assays:
Assay type in all cases: cell-based, human
PC-3 cells [1] = assay: Cell growth of PC-3 cells (cell counting); details: three days; for cell growth in the presence of cell cycle inhibitor alone: roscovitine 10 or 100 nM, butyrate 10 or 100 μM, sulforaphane 1 or 10 nM
Method: (§1) The PC-3 and DU-145 cells (the cell number of 1×10^5/in 1 ml of a culture fluid per hole using a 24-hole plate) were cultured in a DMEM culture fluid (containing 10% of FBS, 1% of P/S, and 1% of fungizone) containing the DHMBA (1 and 10 μM) under 5% of CO2, at 37° C., for one, two, three, four, and six days. […] After the culture, 0.1 ml of 0.05% trypsin-EDTA solution obtained by dissolving the cells adhering to the bottom surface of the culture dish in PBS (Thermo Fisher Scientific, Waltham, MA, USA) not containing Ca^2+/Mg^2+ was added, incubation was performed at 37° C. for two minutes to release the adhering cells, and 0.9 ml of the DMEM culture fluid containing 10% of FBS and 1% of P/S was added to stop the reaction. The cell number in the cell suspension was counted by the method described in the item of “Measurement of Cell Number.”
(§2) After the culture of the cells, 0.1 ml of 0.05% trypsin-EDTA solution obtained by dissolving the cells adhering to the bottom surface of the culture dish in PBS (Thermo Fisher Scientific, Waltham, MA, USA) not containing Ca^2+/Mg^2+ was added, incubation was performed at 37° C. for two minutes to release the adhering cells, and 0.9 ml of the DMEM culture fluid containing 10% of FBS and 1% of P/S was added to stop the reaction. The visible cells were counted by the Olympus MTV-3 microscope using a hemocytometer (Sigma-Aldrich).
FIG. 1(C) is a diagram in which the PC-3 cells (1×10^5 cells/per well of a 24-well plate) were cultured under 5% of CO2, at 37° C., for one to six days in a DMEM culture fluid (containing 10% of FBS, 1% of P/S, and 1% of fungizone) containing the DHMBA (10 μM).
In FIGS. 1(D) and 1(E), the PC-3 cells (1×10^5 cells/per well of a 24-well plate) were cultured under 5% of CO2, at 37° C., for three (FIG. 1D) and six (FIG. 1E) days in a DMEM culture fluid (containing 10% of FBS, 1% of P/S, and 1% of fungizone) containing the DHMBA (0.01, 0.1, 1, 10, 100, and 1000 μM). After the culture, the cells adhered to the bottom surface of the dish were removed and counted. […] 1-way ANOVA, Tukey-Kramer post-test.
FIGS. 3(A) and 3(B) are diagrams in which the PC-3 cells (1×10^5 cells/ml/per well of a 24-well plate) were cultured under 5% of CO2, at 37° C., for three days in a DMEM culture fluid (containing 10% of FBS, 1% of P/S, and 1% of fungizone) containing the DHMBA (10 μM) containing cell cycle inhibitors, roscovitine (10 and 100 nM), butyrate (10 and 100 μM), and sulforaphane (1 and 10 nM).
After the culture, the cells adhered to the dish were removed and counted. […] 1-way ANOVA, Tukey-Kramer post-test.
In the drawing, the PC-3 cells (1×10^5/in 1 ml of a culture fluid per hole using a 24-hole plate) were cultured under 5% of CO2, at 37° C., for three days in a DMEM culture fluid (containing 10% of FBS, 1% of P/S, and 1% of fungizone) in the presence of the DHMBA (10 μM) and an aryl hydrocarbon receptor inhibitor CH223191 (1, 10, or 25 μM) to examine the action on cell growth.

PC-3 cells [2] = assay: Cell death of sub-confluent PC-3 cells (adherent cell counting)
Method: The PC-3 and DU-145 cells (1×10^5/in 1 ml of a culture fluid per hole using a 24-hole plate) were cultured in a DMEM culture fluid (containing 10% of FBS, 1% of P/S, and 1% of fungizone) under 5% of CO2, at 37° C., for three days, and when the cells reached sub-confluence, the culture fluid was exchanged for the one containing the DHMBA (0.01, 0.1, 1, 10, 100, or 1000 μM), and the cells were cultured for 24 and 48 hours. After the culture, the cells adhering to the bottom surface of the dish were removed and counted. In another experiment, after the culture for three days, when the cells reached sub-confluence, the culture fluid was exchanged for a culture fluid containing the DHMBA (1 or 10 μM) and a caspase-3 inhibitor (10 μM), and the cells were counted after the culture for 48 hours. Further, after the culture for three days, when the cells reached sub-confluence, the culture fluid was exchanged for a culture fluid obtained by adding gemcitabine (0.1, 1, 10, 50 or 100 nM) or CH223191 (1, 10, and 25 μM) to a DMEM culture fluid containing the DHMBA (1 or 10 μM) or not containing the DHMBA, and the cells were counted after the culture for 48 hours.
as §2
In the drawing, the PC-3 (FIGS. 5(A) and 5(B)) and DU-145 (FIGS. 5(D) and 5(E)) cells (1×10^5/in 1 ml of a culture fluid per hole using a 24-hole plate) were cultured under 5% of CO2, at 37° C., for three days in a DMEM culture fluid (containing 10% of FBS, 1% of P/S, and 1% of fungizone), and when the cells reached sub-confluence, the culture fluid was exchanged for the one containing the DHMBA (0.01, 0.1, 1, 10, 100, or 1000 μM), and the cells were cultured for 24 and 48 hours. In the drawing, after the culture, the cells adhering to the dish were counted.
In another experiment, after the culture for three days, when the cells reached sub-confluence, for the PC-3 (FIG. 5(C)) or DU-145 (FIG. 5(F)) cells, the culture fluid was exchanged for a culture fluid containing the DHMBA (1 or 10 μM) and a caspase-3 inhibitor (10 μM), and the cells were counted after the culture for 48 hours. Further, after the culture for three days, when the cells reached sub-confluence, the culture fluid was exchanged for a culture fluid obtained by adding gemcitabine (0.1, 1, 10, 50 or 100 nM) or CH223191 (1, 10, and 25 μM) to a DMEM culture fluid containing the DHMBA (1 or 10 μM) or not containing the DHMBA, and the cells were counted after the culture for 48 hours. After the culture, the cells adhered to the dish were removed and counted. Each piece of data is shown with a mean value and a standard deviation of values obtained from eight wells of the different cultured cells. *p<0.001, comparison with the control (gray bar). 1-way ANOVA, Tukey-Kramer post-test.
The PC-3 cells (1×10^5/in 1 ml of a culture fluid per hole using a 24-hole plate) were cultured under 5% of CO2, at 37° C., for three days in a DMEM culture fluid (containing 10% of FBS, 1% of P/S, and 1% of fungizone), and when the cells reached sub-confluence, the culture fluid was exchanged for the one containing the gemcitabine (1, 10, 50, 100, or 250 nM), and the cells were cultured for 48 hours. In the drawing, after the culture, the cells adhering to the dish were counted.
After the culture for three days, when the cells reached sub-confluence, the culture fluid was exchanged for a culture fluid containing the DHMBA (1 or 10 μM) and gemcitabine (1, 10, or 100 nM), and the cells were counted after the culture for 48 hours. […]

DU-145 cells = assay: Cell growth of DU-145 cells (cell counting); details: three days, roscovitine 10 or 100 nM, butyrate 10 or 100 μM, sulforaphane 1 or 10 nM
Method: as §1, §2
FIG. 2(C) is a diagram in which the DU-145 cells (1×10^5 cells/per well of a 24-well plate) were cultured under 5% of CO2, at 37° C., for one to six days in a DMEM culture fluid (containing 10% of FBS, 1% of P/S, and 1% of fungizone) containing the DHMBA (10 μM).
In FIGS. 2(D) and 2(E), the DU-145 cells (1×10^5 cells/per well of a 24-well plate) were cultured under 5% of CO2, at 37° C., for three (FIG. 2D) and six (FIG. 2E) days in a DMEM culture fluid (containing 10% of FBS, 1% of P/S, and 1% of fungizone) containing the DHMBA (0.01, 0.1, 1, 10, 100, and 1000 μM). After the culture, the cells adhered to the dish were removed and counted. […] 1-way ANOVA, Tukey-Kramer post-test.

SMILES | cell growth in the presence of cell cycle inhibitor alone (PC-3 cells [1]) | cell growth in the presence of cell cycle inhibitor alone (DU-145 cells) | also measured
Cc1ccccc1N=Nc1ccc(NC(=O)c2ccnn2C)c(C)c1 [CH223191, 2-Methyl-2H-pyrazole-3-carboxylic acid (2-methyl-4-o-tolylazo-phenyl)-amide, reference compound] | – | – | action of CH223191 alone on cell growth (PC-3 cells [1]; CH223191 1, 10, or 25 μM): no significant effect; cell death induction by CH223191 alone (PC-3 cells [2]; sub-confluent, CH223191 1, 10, or 25 μM, 48 hours): did not cause the cell death induction
COc1cccc(-c2cc(=O)c3ccccc3o2)c1N [PD98059, reference compound] | – | – | cell growth in the presence of intracellular signaling inhibitor alone (PC-3 cells [1]; wortmannin 10 or 100 nM, PD98059 1 or 10 μM, staurosporine 1 or 10 nM): inhibited
C[S+]([O-])CCCCN=C=S (centres unmarked) [sulforaphane, reference compound] | inhibited | inhibited | –
Nc1ccn([C@@H]2O[C@H](CO)[C@@H](O)C2(F)F)c(=O)n1 [gemcitabine, reference compound] | – | – | cell death by gemcitabine alone (PC-3 cells [2]; gemcitabine 1, 10, 50, 100, and 250 nM, three days as printed): significant cell deaths
CC[C@H](CO)Nc1nc(NCc2ccccc2)c2ncn(C(C)C)c2n1 [roscovitine, reference compound] | inhibited | inhibited | –
